# Reference: patent publication US20220323471A1 (priority 2019, published 2022)
# Assays:
# [1] = tested on: ZIKV strain MR766; assay: In situ (+)-ZIKV RNA hybridization in VERO cells; assay type: cell-based, Zika virus; details: MOI 0.5, 1 μM, 48 hours
# Protocol: To determine the ZIKV life cycle stage at which DGP acts, two approaches were used to measure the production of viral RNA: 1) In situ hybridization to image viral RNA by using fluorescent probes, and 2) Reverse transcription PCR (qRT-PCR) to quantify viral RNA. […] At 48 hours post-infection, cells were fixed/permeabilized and ZIKV positive-strand RNA and detected by in situ hybridization using a specific fluorescently labeled negative-strand probe (green) and cell nuclei were stained using 4%6-diamidino-2-phenylindole (DAPI; blue). Twenty-five random images were captured for each treatment (Mock, ZIKV MR766, and ZIKV MR766+DGP 1 μM). To quantify the extent of infection, 400 cells per treatment were randomly counted and the percentage of infected (green) cells were calculated.
# ZIKV RNA in cultured adherent cells was probed using the RNAscope reagents and protocol (Advanced Cell Diagnostics) (Wang, F. et al. 2012, “RNAscope: a novel in situ RNA analysis platform for formalin-fixed, paraffin-embedded tissues.” J Mol Diagn 14(1): 22-29) with some modifications as previously described (Puray-Chavez, M. 2017, “Multiplex single-cell visualization of nucleic acids and protein during HIV infection.” Nat Commun 8(1): 1882. Fixed cells on coverslips were washed twice with PBS, then incubated with 0.1% Tween-20 in PBS (PBS-T) for 10 min at room temperature (RT) and washed in PBS for 1 min. […]
# [2] = tested on: JEV-RVP; assay type: cell-based, Japanese encephalitis virus; details: VERO cells; DGP 1 μM; NH4Cl 20 mM
# [3] = tested on: ZIKV MR766; assay: qRT-PCR quantification of ZIKV RNA in cells; assay type: cell-based, Zika virus; details: VERO and HT1080 cells; MOI 1; 48 hours; increasing concentrations
# Protocol: To corroborate these findings, quantitative real-time PCR (qRT-PCR) was used to quantify viral RNA using specific primers for the ZIKV genome (FIG. 3A). VERO and HT1080 cells were challenged with ZIKV at an MOI of 1 in the presence of DGP at the indicated concentrations. At 48 hours post-infection, ZIKV RNA was quantified by qRT-PCR, and normalized to Actin. […] Inhibition of viral RNA production correlated with the inhibition of viral infection (compare FIG. 3A with FIG. 3B).
# To detect viral copies of ZIKV and Sendai Virus (SeV) by qRT-PCR, cells were seeded in 24-well plates, with or without DGP treatment, and infected with the virus at the indicated MOI for 48 h. After the incubation period, total RNA from HT1080, VERO, and CHME3 cells was isolated and purified using Trizol (Invitrogen). For detection of ZIKV viral load in brain and spleen, 3 mice were sacrificed at 6 days post-infection and total RNA was extracted from the brain and spleen. For cDNA synthesis, 1 ng of total RNA was reverse transcribed. The reaction mixture included 1 mM of deoxyribonucleotide phosphates (dNTPs), 2 nM of the specific reverse primer of ZIKV or SeV, 1× M-MULV buffer, 10 U M-MuLV RT (BioLabs), and 2 U of RNase Inhibitor. The reaction mixture was incubated for 1 hour at 42° C. followed by 20 min at 65° C. to inactivate the enzyme. […]
# ZIKV RNA levels were measured using real-time PCR. […]
# [4] = tested on: ZIKV-RVP; assay type: cell-based, Zika virus; details: VERO, HT1080, CHME3 cells; MOI 0.5; 48 hours
smiles,measurement,setting,value
"COc1cc2c(OC3OC(C)C(O)C(O)C3O)c3c(c(-c4ccc5c(c4)OCO5)c2cc1OC)C(=O)OC3 (centres unmarked) [DGP, 6-deoxyglucose-diphyllin]",% Infected Cells,[1],3.05%
same,Infected Cells (Green),[1]; of 400 cells counted,12
same,JEV RVP infection,[2],almost undetectable
same,synthesis of viral RNA (normalized to Actin),[3],completely inhibited
same,concentration at which ZIKV-RVP infection was substantially inhibited,[4],0.25 to 0.50 µM
